In US20260022142A1, “MACROCYCLIC IMMUNOMODULATORS” (Bristol-Myers Squibb Company, priority 2022, published 2026):
Bridge positions count the residues as written; N and C are the ends. Square brackets hold non-standard residues; d marks the D form. Peptide text beside a SMILES is read from it. * marks the point of attachment. ξ: configuration not given here. Phe(4-COOH) = N[C@@H](Cc1ccc(C(=O)O)cc1)C(=O)O; Bip = N[C@@H](Cc1ccc(-c2ccccc2)cc1)C(=O)O; Phe(3-Me) = Cc1cccc(C[C@H](N)C(=O)O)c1; hArg = N=C(N)NCCCC[C@H](N)C(=O)O; 4Pal = N[C@@H](Cc1ccncc1)C(=O)O; Cha = N[C@@H](CC1CCCCC1)C(=O)O; Cit = NC(=O)NCCC[C@H](N)C(=O)O; Thr(3ξ) = CC(O)[C@H](N)C(=O)O; 12Ado = NCCCCCCCCCCCC(=O)O; Carboxymethyl = O=C(O)C*; Orn = NCCC[C@H](N)C(=O)O; Aun = NCCCCCCCCCCC(=O)O; Dab = NCC[C@H](N)C(=O)O; Dap = NC[C@H](N)C(=O)O; AEEA = NCCOCCOCC(=O)O

Target: T1, PD-1/PD-L1 interaction (PE-labeled human PD-L1-Ig binding to Jurkat cell line over-expressing human PD-1) (Homo sapiens, UniProt Q15116)
T1 construct: expressed in transfected cells; host or cells: Jurkat
Experiment: Jurkat-PD-1 Cell Binding High-Content Screening Assay (CBA)
Format: cell-based
Details: Jurkat cell line over-expressing human PD-1; PE-labeled PD-L1-Ig 20 nM final; read-out: Jurkat hPD1-PDL1 IC50
Outline: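 Read-out is high-content imaging of cell-bound phycoerythrin-tagged PD-L1-Ig on fixed, Hoechst-counterstained Jurkat cells that over-express human PD-1. Compound exposure lasts 2 h at 37° C before the labeled ligand (20 nM final) is added for a further hour.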

T1 sequence (Q15116 25-288): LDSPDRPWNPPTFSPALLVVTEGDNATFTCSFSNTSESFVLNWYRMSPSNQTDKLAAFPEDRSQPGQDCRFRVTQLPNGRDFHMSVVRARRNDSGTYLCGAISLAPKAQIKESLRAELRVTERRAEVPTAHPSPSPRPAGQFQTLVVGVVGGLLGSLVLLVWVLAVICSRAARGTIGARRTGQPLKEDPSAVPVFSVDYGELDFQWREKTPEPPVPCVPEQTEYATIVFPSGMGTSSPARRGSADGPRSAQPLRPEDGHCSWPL

Row | IC50 | Compound
1 | 7.6 nM | CC(C)C[C@H]1NC(=O)[C@H](CCCN)NC(=O)[C@H](C(C)C)NC(=O)[C@H](Cc2ccc(-c3ccccc3)cc2)NC(=O)[C@H](C(C)C)NC(=O)[C@H](Cc2c[nH]c3ccccc23)NC(=O)[C@H](CC(=O)O)NC(=O)[C@H](Cc2ccc(OCC(=O)O)cc2)NC(=O)[C@H](CCCNC(=N)N)NC(=O)CSC[C@@H](C(=O)NCC(=O)NCCOCCOCC(=O)N[C@@H](CCCN)C(=O)NCCCCCCCCCCCC(=O)O)NC(=O)[C@H](CO)NC(=O)[C@H](C(C)C)NC(=O)[C@H](CC2CCCCC2)NC(=O)[C@H](CCN)NC1=O [Compound 3181] ({CH2CO}-RY(Carboxymethyl)DWV[Bip]V[Orn][dL][Dab][Cha]VSCG[AEEA][Orn][12Ado]-OH; thioether N-14)
2 | 45.9 nM | Cc1cccc(C[C@@H]2NC(=O)[C@H](CC(=O)O)NC(=O)[C@H](Cc3ccc(OCC(=O)O)cc3)NC(=O)[C@H](CCCCNC(=N)N)NC(=O)CSC[C@@H](C(=O)NCC(=O)N[C@@H](CCC(=O)O)C(=O)NCCCCCCCCCCCC(=O)O)NC(=O)[C@H](CO)NC(=O)[C@H](C(C)C)NC(=O)[C@H](CC3CCCCC3)NC(=O)[C@H](C(C)O)NC(=O)[C@@H](CC(C)C)NC(=O)[C@H](CCCN)NC(=O)[C@H](CCCNC(N)=O)NC(=O)[C@H](Cc3ccc(-c4ccccc4)cc3)NC(=O)[C@H](C(C)C)NC2=O)c1 (stereo partly drawn) [Compound 3182] ({CH2CO}-[hArg]Y(Carboxymethyl)D[Phe(3-Me)]V[Bip][Cit][Orn][dL][Thr(3ξ)][Cha]VSCGE[12Ado]-OH; thioether N-14)
3 | 821 nM | Cc1cccc(C[C@@H]2NC(=O)[C@H](CC(=O)O)NC(=O)[C@H](Cc3ccc(OCC(=O)O)cc3)NC(=O)[C@H](CCCCNC(=N)N)NC(=O)CSC[C@@H](C(=O)NCC(=O)N[C@@H](CCC(=O)O)C(=O)NCCCCCCCCCCCC(=O)O)NC(=O)[C@H](CO)NC(=O)[C@H](C(C)C)NC(=O)[C@H](CC3CCCCC3)NC(=O)[C@H](CCN)NC(=O)[C@@H](CC(C)C)NC(=O)[C@H](CCCN)NC(=O)[C@H](CCCNC(N)=O)NC(=O)[C@H](Cc3ccc(-c4ccccc4)cc3)NC(=O)[C@H](C(C)C)NC2=O)c1 [Compound 3183] ({CH2CO}-[hArg]Y(Carboxymethyl)D[Phe(3-Me)]V[Bip][Cit][Orn][dL][Dab][Cha]VSCGE[12Ado]-OH; thioether N-14)
4 | 10.1 nM | Cc1cccc(C[C@@H]2NC(=O)[C@H](CC(=O)O)NC(=O)[C@H](Cc3ccc(OCC(=O)O)cc3)NC(=O)[C@H](CCCCNC(=N)N)NC(=O)CSC[C@@H](C(=O)NCC(=O)NCCOCCOCC(=O)N[C@@H](CCC(=O)O)C(=O)NCCCCCCCCCCCC(=O)O)NC(=O)[C@H](CO)NC(=O)[C@H](C(C)C)NC(=O)[C@H](CC3CCCCC3)NC(=O)[C@H](CCN)NC(=O)[C@@H](CC(C)C)NC(=O)[C@H](CCCN)NC(=O)[C@H](C(C)C)NC(=O)[C@H](Cc3ccc(-c4ccccc4)cc3)NC(=O)[C@H](C(C)C)NC2=O)c1 [Compound 3184] ({CH2CO}-[hArg]Y(Carboxymethyl)D[Phe(3-Me)]V[Bip]V[Orn][dL][Dab][Cha]VSCG[AEEA]E[12Ado]-OH; thioether N-14)
5 | 17.6 nM | Cc1cccc(C[C@@H]2NC(=O)[C@H](CC(=O)O)NC(=O)[C@H](Cc3ccc(OCC(=O)O)cc3)NC(=O)[C@H](CCCCNC(=N)N)NC(=O)CSC[C@@H](C(=O)NCC(=O)NCCOCCOCC(=O)N[C@@H](CCC(=O)O)C(=O)NCCCCCCCCCCCC(=O)O)NC(=O)[C@H](CO)NC(=O)[C@H](C(C)C)NC(=O)[C@H](CC3CCCCC3)NC(=O)[C@H](CCN)NC(=O)[C@@H](CC(C)C)NC(=O)[C@H](CCCN)NC(=O)[C@H](CCCNC(N)=O)NC(=O)[C@H](Cc3ccc(-c4ccccc4)cc3)NC(=O)[C@H](C(C)C)NC2=O)c1 [Compound 3185] ({CH2CO}-[hArg]Y(Carboxymethyl)D[Phe(3-Me)]V[Bip][Cit][Orn][dL][Dab][Cha]VSCG[AEEA]E[12Ado]-OH; thioether N-14)
6 | 9.7 nM | Cc1cccc(C[C@@H]2NC(=O)[C@H](CC(=O)O)NC(=O)[C@H](Cc3ccc(OCC(=O)O)cc3)NC(=O)[C@H](CCCCNC(=N)N)NC(=O)CSC[C@@H](C(=O)N[C@@H](CCCN)C(=O)N[C@@H](CO)C(=O)NCCCCCCCCCCCC(=O)O)NC(=O)[C@H](C(C)O)NC(=O)[C@H](C(C)C)NC(=O)[C@H](CC3CCCCC3)NC(=O)[C@H](CCN)NC(=O)[C@@H](CC(C)C)NC(=O)[C@H](CCCN)NC(=O)[C@H](CCCNC(N)=O)NC(=O)[C@H](Cc3ccc(-c4ccccc4)cc3)NC(=O)[C@H](C(C)C)NC2=O)c1 (stereo partly drawn) [Compound 3187] ({CH2CO}-[hArg]Y(Carboxymethyl)D[Phe(3-Me)]V[Bip][Cit][Orn][dL][Dab][Cha]V[Thr(3ξ)]C[Orn]S[12Ado]-OH; thioether N-14)
7 | 302 nM | Cc1cccc(C[C@@H]2NC(=O)[C@H](CC(=O)O)NC(=O)[C@H](Cc3ccc(OCC(=O)O)cc3)NC(=O)[C@H](CCCCNC(=N)N)NC(=O)CSC[C@@H](C(=O)N[C@@H](CN)C(=O)N[C@@H](CCC(=O)O)C(=O)NCCCCCCCCCCCC(=O)O)NC(=O)[C@H](C(C)O)NC(=O)[C@H](C(C)C)NC(=O)[C@H](CC3CCCCC3)NC(=O)[C@H](CCN)NC(=O)[C@@H](CC(C)C)NC(=O)[C@H](CCCN)NC(=O)[C@H](CCCNC(N)=O)NC(=O)[C@H](Cc3ccc(-c4ccccc4)cc3)NC(=O)[C@H](C(C)C)NC2=O)c1 (stereo partly drawn) [Compound 3188] ({CH2CO}-[hArg]Y(Carboxymethyl)D[Phe(3-Me)]V[Bip][Cit][Orn][dL][Dab][Cha]V[Thr(3ξ)]C[Dap]E[12Ado]-OH; thioether N-14)
8 | 21.7 nM | CC(C)C[C@@H]1NC(=O)[C@H](Cc2c[nH]c3ccccc23)NC(=O)[C@H](CC(=O)O)NC(=O)[C@H](Cc2ccc(OCC(=O)O)cc2)NC(=O)[C@H](CCCCNC(=N)N)NC(=O)CSC[C@@H](C(=O)NCC(=O)NCCOCCOCC(=O)N[C@@H](CCCN)C(=O)NCCOCCOCC(=O)NCCCCCCCCCCCC(=O)O)NC(=O)[C@H](CO)NC(=O)[C@H](C(C)C)NC(=O)[C@H](CC2CCCCC2)NC(=O)[C@H](CCN)NC(=O)[C@@H](CC(C)C)NC(=O)[C@H](CCCN)NC(=O)[C@H](C(C)C)NC(=O)[C@H](Cc2ccc(-c3ccccc3)cc2)NC1=O [Compound 3189] ({CH2CO}-[hArg]Y(Carboxymethyl)DWL[Bip]V[Orn][dL][Dab][Cha]VSCG[AEEA][Orn][AEEA][12Ado]-OH; thioether N-14)
9 | 20.4 nM | CC(C)C[C@H]1NC(=O)[C@H](CCCN)NC(=O)[C@H](C(C)C)NC(=O)[C@H](Cc2ccc(-c3ccccc3)cc2)NC(=O)[C@H](C(C)C)NC(=O)[C@H](Cc2c[nH]c3ccccc23)NC(=O)[C@H](CC(=O)O)NC(=O)[C@H](Cc2ccc(OCC(=O)O)cc2)NC(=O)[C@H](CCCCNC(=N)N)NC(=O)CSC[C@@H](C(=O)NCC(=O)NCCOCCOCC(=O)N[C@@H](CCCN)C(=O)NCCOCCOCC(=O)NCCCCCCCCCCCC(=O)O)NC(=O)[C@H](CO)NC(=O)[C@H](C(C)C)NC(=O)[C@H](CC2CCCCC2)NC(=O)[C@H](CCN)NC1=O [Compound 3190] ({CH2CO}-[hArg]Y(Carboxymethyl)DWV[Bip]V[Orn][dL][Dab][Cha]VSCG[AEEA][Orn][AEEA][12Ado]-OH; thioether N-14)
10 | 11.4 nM | CC(C)C[C@H]1NC(=O)[C@H](CCCN)NC(=O)[C@H](C(C)C)NC(=O)[C@H](Cc2ccc(-c3ccccc3)cc2)NC(=O)[C@H](C(C)C)NC(=O)[C@H](Cc2c[nH]c3ccccc23)NC(=O)[C@H](CC(=O)O)NC(=O)[C@H](Cc2ccc(OCC(=O)O)cc2)NC(=O)[C@H](CN)NC(=O)CSC[C@@H](C(=O)N[C@@H](CCCN)C(=O)NCCOCCOCC(=O)NCCCCCCCCCCC(=O)O)NC(=O)[C@H](C(C)O)NC(=O)[C@H](C(C)C)NC(=O)[C@H](CC2CCCCC2)NC(=O)[C@H](CCN)NC1=O (stereo partly drawn) [Compound 3191] ({CH2CO}-[Dap]Y(Carboxymethyl)DWV[Bip]V[Orn][dL][Dab][Cha]V[Thr(3ξ)]C[Orn][AEEA][Aun]-OH; thioether N-14)
11 | 18.2 nM | CC(C)C[C@H]1NC(=O)[C@H](CCCN)NC(=O)[C@H](C(C)C)NC(=O)[C@H](Cc2ccc(-c3ccccc3)cc2)NC(=O)[C@H](C(C)C)NC(=O)[C@H](Cc2c[nH]c3ccccc23)NC(=O)[C@H](CC(=O)O)NC(=O)[C@H](Cc2ccc(OCC(=O)O)cc2)NC(=O)[C@H](CN)NC(=O)CSC[C@@H](C(=O)N[C@@H](CCCN)C(=O)NCCOCCOCC(=O)NCCCCCCCCCCC(=O)O)NC(=O)[C@H](CO)NC(=O)[C@H](C(C)C)NC(=O)[C@H](CC2CCCCC2)NC(=O)[C@H](C(C)O)NC1=O (stereo partly drawn) [Compound 3192] ({CH2CO}-[Dap]Y(Carboxymethyl)DWV[Bip]V[Orn][dL][Thr(3ξ)][Cha]VSC[Orn][AEEA][Aun]-OH; thioether N-14)
12 | 14.4 nM | CC(C)C[C@H]1NC(=O)[C@H](CCCN)NC(=O)[C@H](C(C)C)NC(=O)[C@H](Cc2ccc(-c3ccccc3)cc2)NC(=O)[C@H](C(C)C)NC(=O)[C@H](Cc2c[nH]c3ccccc23)NC(=O)[C@H](CC(=O)O)NC(=O)[C@H](Cc2ccc(OCC(=O)O)cc2)NC(=O)[C@H](CN)NC(=O)CSC[C@@H](C(=O)NCCOCCOCC(=O)N[C@@H](CCCN)C(=O)NCCCCCCCCCCC(=O)O)NC(=O)[C@H](C(C)O)NC(=O)[C@H](C(C)C)NC(=O)[C@H](CC2CCCCC2)NC(=O)[C@H](CC(N)=O)NC1=O (stereo partly drawn) [Compound 3193] ({CH2CO}-[Dap]Y(Carboxymethyl)DWV[Bip]V[Orn][dL]N[Cha]V[Thr(3ξ)]C[AEEA][Orn][Aun]-OH; thioether N-14)
13 | 57.3 nM | CC(C)C[C@@H]1NC(=O)[C@H](Cc2c[nH]c3ccccc23)NC(=O)[C@H](CC(=O)O)NC(=O)[C@H](Cc2ccc(C(=O)O)cc2)NC(=O)[C@H](Cc2ccncc2)NC(=O)CSC[C@@H](C(=O)N[C@@H](CCN)C(=O)NCCOCCOCC(=O)N[C@@H](CCCN)C(=O)NCCCCCCCCCCC(=O)O)NC(=O)[C@H](CO)NC(=O)[C@H](C(C)C)NC(=O)[C@H](CC2CCCCC2)NC(=O)[C@H](CCN)NC(=O)[C@@H](CC(C)C)NC(=O)[C@H](CCCN)NC(=O)[C@H](C(C)C)NC(=O)[C@H](Cc2ccc(-c3ccccc3)cc2)NC1=O [Compound 3195] ({CH2CO}-[4Pal][Phe(4-COOH)]DWL[Bip]V[Orn][dL][Dab][Cha]VSC[Dab][AEEA][Orn][Aun]-OH; thioether N-14)
